In patent US12428370B2, “Haloallylamine dual amine oxidase inhibitors” (Syntara Limited, priority 2020, dated 2025):
Counter-ions that a name gives are not always drawn.

Key:
[1] = molecular target: T1, Rat Adipose Tissue SSAO/VAP-1 (Rattus norvegicus, UniProt O08590); assay: Rat adipose tissue SSAO/VAP-1 activity after oral administration; format: in vivo, Sprague Dawley rats; details: single oral dose 0.6 mg/kg, Sprague Dawley rat adipose tissue, FIG. 2
T1 construct: Adipose tissue was homogenized in ice-cold HES buffer; from tissue; host or cells: gonadal fat of Sprague Dawley rats (homogenate supernatant)
T1 sequence (O08590 1-763): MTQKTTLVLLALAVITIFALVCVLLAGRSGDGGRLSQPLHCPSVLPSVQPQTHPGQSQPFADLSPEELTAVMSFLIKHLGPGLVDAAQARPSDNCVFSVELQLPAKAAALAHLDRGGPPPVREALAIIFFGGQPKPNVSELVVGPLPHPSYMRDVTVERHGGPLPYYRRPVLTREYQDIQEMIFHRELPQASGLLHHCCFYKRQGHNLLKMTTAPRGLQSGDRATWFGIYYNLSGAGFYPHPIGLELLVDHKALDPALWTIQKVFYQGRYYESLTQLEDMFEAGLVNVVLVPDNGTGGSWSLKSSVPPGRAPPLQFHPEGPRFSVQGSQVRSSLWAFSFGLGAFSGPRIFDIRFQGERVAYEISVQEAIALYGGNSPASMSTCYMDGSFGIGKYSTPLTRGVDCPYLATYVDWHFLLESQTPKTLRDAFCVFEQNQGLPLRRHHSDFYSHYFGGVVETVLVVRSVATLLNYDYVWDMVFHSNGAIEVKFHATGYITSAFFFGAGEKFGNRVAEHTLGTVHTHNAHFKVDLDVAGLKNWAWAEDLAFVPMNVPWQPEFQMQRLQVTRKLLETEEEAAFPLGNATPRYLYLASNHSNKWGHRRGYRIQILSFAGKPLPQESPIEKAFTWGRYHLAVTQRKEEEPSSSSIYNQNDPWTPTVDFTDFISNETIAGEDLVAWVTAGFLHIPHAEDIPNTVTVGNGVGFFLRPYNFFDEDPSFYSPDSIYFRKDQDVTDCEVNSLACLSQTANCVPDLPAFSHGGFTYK
Description: Sprague Dawley rats were orally administered the compound under study and sacrificed at various time points and gonadal fat and brain tissue collected.
Adipose tissue was homogenized in ice-cold HES buffer (20 mM HEPES, 1 mM EDTA, sucrose 250 mM, proteases and phosphatases inhibitor, pH 7.4). Homogenate was then centrifuged at 2000 rpm for 5 minutes at 4° C. and the resultant supernatant portion (minus the lipid top layer) used for assay. SSAO/VAP-1 activity was determined by using a non-specific MAO inhibitor (e.g. pargyline) to establish the high signal and a mixture of non-specific MAO inhibitor and an SSAO/VAP-1 inhibitor (e.g. semicarbazide) to determine the low signal.
Activity of the treated samples was analyzed using the fluorometric method described in EXAMPLE 9 for SSAO/VAP-1 activity and EXAMPLE 10 for MAO-B.

[2] = molecular target: T2, human recombinant SSAO/VAP-1 (Homo sapiens, UniProt Q16853); assay: Inhibition of human recombinant SSAO/VAP-1 (Amplex Red fluorometric assay); format: biochemical; details: 30 min incubation, 37° C., benzylamine substrate
T2 construct: a cloned cDNA template corresponding to residues 34-763 of human SSAO/VAP-1; TEV cleavage site (N); made in house
T2 sequence (Q16853 34-763): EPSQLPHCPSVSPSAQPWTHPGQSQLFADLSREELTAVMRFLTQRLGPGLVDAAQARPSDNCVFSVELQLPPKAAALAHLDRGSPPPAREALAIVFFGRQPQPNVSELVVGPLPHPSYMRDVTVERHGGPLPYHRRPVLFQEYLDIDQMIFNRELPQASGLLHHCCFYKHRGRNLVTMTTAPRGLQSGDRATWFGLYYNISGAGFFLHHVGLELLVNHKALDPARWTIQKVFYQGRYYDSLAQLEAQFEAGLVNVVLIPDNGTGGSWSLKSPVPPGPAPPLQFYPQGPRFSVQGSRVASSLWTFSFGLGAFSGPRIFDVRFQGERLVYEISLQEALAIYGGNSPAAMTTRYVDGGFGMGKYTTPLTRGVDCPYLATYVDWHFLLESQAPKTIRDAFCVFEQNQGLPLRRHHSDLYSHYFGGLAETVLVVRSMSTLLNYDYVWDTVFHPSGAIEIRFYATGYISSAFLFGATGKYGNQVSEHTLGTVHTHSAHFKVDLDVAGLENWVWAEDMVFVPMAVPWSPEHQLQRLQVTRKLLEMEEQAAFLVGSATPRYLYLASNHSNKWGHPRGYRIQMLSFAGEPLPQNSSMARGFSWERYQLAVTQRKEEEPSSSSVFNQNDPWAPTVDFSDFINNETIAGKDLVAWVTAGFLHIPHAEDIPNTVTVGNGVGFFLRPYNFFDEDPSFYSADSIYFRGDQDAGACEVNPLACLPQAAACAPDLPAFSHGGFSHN
Description: Method to Determine the Ability of Compounds of Formula I to Inhibit Human Recombinant SSAO/VAP-1
Human recombinant SSAO/VAP-1 amine oxidase activity was determined using the method as described for monoamine oxidase, copper-containing amine oxidases and related enzymes (Holt A. and Palcic M., Nat. Protoc. 2006, 1, 2498-2505). Briefly, a cloned cDNA template corresponding to residues 34-763 of human SSAO/VAP-1, and incorporating a mouse Ig kappa (κ) signal sequence, N-terminal flag epitope tag and tobacco etch virus (TEV) cleavage site, was assembled in a mammalian expression vector (pLO-CMV) by Geneart AG. This vector containing human SSAO/VAP-1 residues was transfected into CHO-K1 glycosylation mutant cell line, Lec 8. A clone stably expressing human SSAO/VAP-1 was isolated and cultured in large scale. Active human SSAO/VAP-1 was purified and recovered using immunoaffinity chromatography. This was used as the source for SSAO/VAP-1 activity. A high-throughput colorimetric assay was developed using either 96 or 384 well format. Briefly, in a standard 96 well plate assay 50 μL of purified human SSAO/VAP-1 (0.25 μg/mL) in 0.1 M sodium phosphate buffer (pH 7.4) was added into each well. […] After 30 min incubation, 50 μL of the reaction mixture containing 600 μM benzylamine (Sigma Aldrich), 120 μM Amplex Red (Sigma Aldrich) and 1.5 U/mL horseradish peroxidase (Sigma Aldrich) prepared in 0.1 M sodium phosphate buffer (pH 7.4) were added to the corresponding well. The fluorescence unit (RFU) was read every 2.5 min for 30 min at 37° C. excitation 565 nm and emission 590 nm (Optima; BMG labtech). The slope of the kinetics for each well was calculated using MARS data analysis software (BMG labtech) and this value was used to deduce the IC50 value (Dotmatics).

NC/C(=C\F)C1Cc2ccccc2O1 (single isomer, unassigned; (-)) [PXS-5131, (−)-(E)-2-(2,3-Dihydrobenzofuran-2-Yl)-3-Fluoroprop-2-En-1-Amine Hydrochloride]
duration of inhibition of SSAO/VAP-1 enzyme activity [1]: greater than 24 hours

N#Cc1ccc(OC/C(=C/F)CN)cc1 [Compound 1, (E)-4-((2-(aminomethyl)-3-fluoroallyl)oxy) benzonitrile]
IC50 [2]: < 0.01 µM
